Source: patent US8987195B2 (priority 2012, dated 2015)
Where two headings read alike, the source gives them in different places.

How the values were obtained:
[1] = biological target: HCV NS3/4A protease genotype 1b (Hepatitis C virus genotype 1b, UniProt P26663); assay: HCV NS3/4A protease time-resolved fluorescence (TRF) assay, Ki against genotype 1b; assay type: biochemical; details: IC50 [gt-1b] (nM), NS3/4A genotype 1b, enzyme 0.2 nM
How it was run: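 First, protease (genotype 1b 0.2 nM, A156T 0.4 nM, genotype 3a 0.025 nM) is preincubated 30 min with inhibitor. Next, 25 nM TRF substrate starts the reaction, run 2.5 h at room temperature. Finally, europium fluorescence is read and Ki calculated from IC50.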

[2] = test system: HCV genotype 1b replicon; assay: HCV replicon assay, genotype 1b replicon EC50; assay type: cell-based, Hepatitis C virus; details: Hepatitis C virus, genotype 1b replicon, read-out: EC50 [gt-1b]
How it was run: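 Assay format: compound titration on stable replicon cells, no G418 during treatment, 24 to 48 hours. Lysates were assayed for replicon RNA (hybridization/protection or TaqMan) or luciferase; EC50 fitted to four parameters against DMSO.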

SMILES | IC50 ([1]; K+ salt) [nM] | EC50 ([2]; K+ salt) [nM] | IC50 ([1]; HCOOH salt) [nM] | EC50 ([2]; HCOOH salt) [nM] | other results
COc1ccc2nc(C)c3c(c2c1)CC[C@]1(C[C@H]2C(=O)N[C@]4(C(=O)NS(=O)(=O)C5(C)CC5)C[C@H]4/C=C\CCCCC[C@H](NC(=O)OC4CC5CC(=O)OC5C4)C(=O)N2C1)O3 (stereo partly drawn) [Example 261, 2-oxohexahydro-2H-cyclopenta[b]furan-5-yl [(2R,6S,12Z,13aS,14aR,16aS)-9′-methoxy-5′-methyl-14a-{[(1-methylcyclopropyl)sulfonyl]carbamoyl}-5,16-dioxo-1,1′,2′,5,6,7,8,9,10,11,13a,14,14a,15,16,16a-hexadecahydrospiro[cyclopropa[e]pyrrolo[1,2-a][1,4]diazacyclopentadecine-2,3′-pyrano[2,3-c]quinolin]-6-yl]carbamate] | – | – | – | – | IC50 [1]: 0.008 nM; EC50 [2]: 192 nM
COc1ccc2nc(C)c3c(c2c1)C(F)(F)C[C@]1(C[C@H]2C(=O)N[C@]4(C(=O)NS(=O)(=O)C5(C)CC5)C[C@H]4/C=C\CCCCC[C@H](NC(=O)O[C@H](C)C(C)C)C(=O)N2C1)O3 [Example 263, (2R)-3-methylbutan-2-yl [(2S,6S,12Z,13aS,14aR,16aS)-1′,1′-difluoro-9′-methoxy-5′-methyl-14a-{[(1-methylcyclopropyl)sulfonyl]carbamoyl}-5,16-dioxo-1,1′,2′,5,6,7,8,9,10,11,13a,14,14a,15,16,16a-hexadecahydrospiro[cyclopropa[e]pyrrolo[1,2-a][1,4]diazacyclopentadecine-2,3′-pyrano[2,3-c]quinolin]-6-yl]carbamate] | 0.007 | 5.3 | – | – | –
COc1ccc2nc(C)c3c(c2c1)C(F)(F)C[C@]1(C[C@H]2C(=O)N[C@]4(C(=O)NS(=O)(=O)C5(C)CC5)C[C@H]4/C=C\CCCCC[C@H](NC(=O)O[C@@H](C)C(C)C)C(=O)N2C1)O3 [Example 264, (2S)-3-methylbutan-2-yl [(2S,6S,12Z,13aS,14aR,16aS)-1′,1′-difluoro-9′-methoxy-5′-methyl-14a-{[(1-methylcyclopropyl)sulfonyl]carbamoyl}-5,16-dioxo-1,1′,2′,5,6,7,8,9,10,11,13a,14,14a,15,16,16a-hexadecahydrospiro[cyclopropa[e]pyrrolo[1,2-a][1,4]diazacyclopentadecine-2,3′-pyrano[2,3-c]quinolin]-6-yl]carbamate] | 0.013 | 4.3 | – | – | –
COc1ccc2nc(C)c3c(c2c1)C(F)(F)C[C@]1(C[C@H]2C(=O)N[C@]4(C(=O)NS(=O)(=O)C5(C)CC5)C[C@H]4/C=C\CCCCC[C@H](NC(=O)OC(C)(C)C(F)(F)F)C(=O)N2C1)O3 [Example 265, 1,1,1-trifluoro-2-methylpropan-2-yl [(2S,6S,12Z,13aS,14aR,16aS)-1′,1′-difluoro-9′-methoxy-5′-methyl-14a-{[(1-methylcyclopropyl)sulfonyl]carbamoyl}-5,16-dioxo-1,1′,2′,5,6,7,8,9,10,11,13a,14,14a,15,16,16a-hexadecahydrospiro[cyclopropa[e]pyrrolo[1,2-a][1,4]diazacyclopentadecine-2,3′-pyrano[2,3-c]quinolin]-6-yl]carbamate] | 0.007 | 3.35 | – | – | –
Cc1nc2ccc(OC(F)F)cc2c2c1O[C@]1(CC2)C[C@H]2C(=O)N[C@]3(C(=O)NS(=O)(=O)C4(C)CC4)C[C@H]3/C=C\CCCCC[C@H](NC(=O)OCC(C)C)C(=O)N2C1 [Example 267, 2-methylpropyl [(2R,6S,12Z,13aS,14aR,16aS)-9′-(difluoromethoxy)-5′-methyl-14a-{[(1-methylcyclopropyl)sulfonyl]carbamoyl}-5,16-dioxo-1,1′,2′,5,6,7,8,9,10,11,13a,14,14a,15,16,16a-hexadecahydrospiro[cyclopropa[e]pyrrolo[1,2-a][1,4]diazacyclopentadecine-2,3′-pyrano[2,3-c]quinolin]-6-yl]carbamate] | 0.006 | 3.56 | – | – | –
Cc1nc2ccc(OC(F)F)cc2c2c1O[C@]1(CC2)C[C@H]2C(=O)N[C@]3(C(=O)NS(=O)(=O)C4(C)CC4)C[C@H]3/C=C\CCCCC[C@H](NC(=O)OC3CCCC3)C(=O)N2C1 [Example 268, cyclopentyl [(2R,6S,12Z,13aS,14aR,16aS)-9′-(difluoromethoxy)-5′-methyl-14a-{[(1-methylcyclopropyl)sulfonyl]carbamoyl}-5,16-dioxo-1,1′,2′,5,6,7,8,9,10,11,13a,14,14a,15,16,16a-hexadecahydrospiro[cyclopropa[e]pyrrolo[1,2-a][1,4]diazacyclopentadecine-2,3′-pyrano[2,3-c]quinolin]-6-yl]carbamate] | 0.003 | 4.03 | – | – | –
COc1ccc2c3c(c(C4CC4)nc2c1)O[C@]1(CC3)C[C@H]2C(=O)N[C@]3(C(=O)NS(=O)(=O)C4(C)CC4)C[C@H]3/C=C\CCCCC[C@H](NC(=O)CC(C)(C)C)C(=O)N2C1 [Example 269, (2R,6S,12Z,13aS,14aR,16a5)-5′-cyclopropyl-6-[(3,3-dimethylbutanoyl)amino]-8′-methoxy-N-[(1-methylcyclopropyl)sulfonyl]-5,16-dioxo-1,1′,2′,6,7,8,9,10,11,13a,14,15,16,16a-tetradecahydrospiro[cyclopropa[e]pyrrolo[1,2-a][1,4]diazacyclopentadecine-2,3′-pyrano[2,3-c]quinoline]-14a(5H)-carboxamide] | – | – | 0.337 | 11.9 | –
COc1ccc2c3c(c(C4CC4)nc2c1)O[C@]1(CC3)C[C@H]2C(=O)N[C@]3(C(=O)NS(=O)(=O)C4(C)CC4)C[C@H]3/C=C\CCCCC[C@H](NC(=O)CC3CCCC3)C(=O)N2C1 [Example 270, (2R,6S,12Z,13aS,14aR,16aS)-6-[(cyclopentylacetyl)amino]-5′-cyclopropyl-8′-methoxy-N-[(1-methylcyclopropyl)sulfonyl]-5,16-dioxo-1,1′,2′,6,7,8,9,10,11,13a,14,15,16,16a-tetradecahydrospiro[cyclopropa[e]pyrrolo[1,2-a][1,4]diazacyclopentadecine-2,3′-pyrano[2,3-c]quinoline]-14a(5H)-carboxamide] | – | – | 0.044 | 24.2 | –
CCCOC(=O)N[C@H]1CCCCC/C=C\[C@@H]2C[C@@]2(C(=O)NS(=O)(=O)C2(C)CC2)NC(=O)[C@@H]2C[C@]3(CCc4c(c(C5CC5)nc5cc(OC)ccc45)O3)CN2C1=O [Example 271, propyl [(2R,6S,12Z,13aS,14aR,16aS)-5′-cyclopropyl-8′-methoxy-14a-{[(1-methylcyclopropyl)sulfonyl]carbamoyl}-5,16-dioxo-1,1′,2′,5,6,7,8,9,10,11,13a,14,14a,15,16,16a-hexadecahydrospiro[cyclopropa[e]pyrrolo[1,2-a][1,4]diazacyclopentadecine-2,3′-pyrano[2,3-c]quinolin]-6-yl]carbamate] | – | – | 0.031 | 5.9 | –
CCCCOC(=O)N[C@H]1CCCCC/C=C\[C@@H]2C[C@@]2(C(=O)NS(=O)(=O)C2(C)CC2)NC(=O)[C@@H]2C[C@]3(CCc4c(c(C5CC5)nc5cc(OC)ccc45)O3)CN2C1=O [Example 272, butyl [(2R,6S,12Z,13aS,14aR,16aS)-5′-cyclopropyl-8′-methoxy-14a-{[(1-methylcyclopropyl)sulfonyl]carbamoyl}-5,16-dioxo-1,1′,2′,5,6,7,8,9,10,11,13a,14,14a,15,16,16a-hexadecahydrospiro[cyclopropa[e]pyrrolo[1,2-a][1,4]diazacyclopentadecine-2,3′-pyrano[2,3-c]quinolin]-6-yl]carbamate] | – | – | 0.116 | 11.2 | –
CCCCCOC(=O)N[C@H]1CCCCC/C=C\[C@@H]2C[C@@]2(C(=O)NS(=O)(=O)C2(C)CC2)NC(=O)[C@@H]2C[C@]3(CCc4c(c(C5CC5)nc5cc(OC)ccc45)O3)CN2C1=O [Example 273, pentyl [(2R,6S,12Z,13aS,14aR,16aS)-5′-cyclopropyl-8′-methoxy-14a-{[(1-methylcyclopropyl)sulfonyl]carbamoyl}-5,16-dioxo-1,1′,2′,5,6,7,8,9,10,11,13a,14,14a,15,16,16a-hexadecahydrospiro[cyclopropa[e]pyrrolo[1,2-a][1,4]diazacyclopentadecine-2,3′-pyrano[2,3-c]quinolin]-6-yl]carbamate] | – | – | 1.13 | 163 | –
COc1ccc2c3c(c(C4CC4)nc2c1)O[C@]1(CC3)C[C@H]2C(=O)N[C@]3(C(=O)NS(=O)(=O)C4(C)CC4)C[C@H]3/C=C\CCCCC[C@H](NC(=O)Oc3ccc(C)cc3)C(=O)N2C1 [Example 274, 4-methylphenyl [(2R,6S,12Z,13aS,14aR,16aS)-5′-cyclopropyl-8′-methoxy-14a-{[(1-methylcyclopropyl)sulfonyl]carbamoyl}-5,16-dioxo-1,1′,2′,5,6,7,8,9,10,11,13a,14,14a,15,16,16a-hexadecahydrospiro[cyclopropa[e]pyrrolo[1,2-a][1,4]diazacyclopentadecine-2,3′-pyrano[2,3-c]quinolin]-6-yl]carbamate] | – | – | 0.832 | 28.3 | –
COc1ccc2c3c(c(C4CC4)nc2c1)O[C@]1(CC3)C[C@H]2C(=O)N[C@]3(C(=O)NS(=O)(=O)C4(C)CC4)C[C@H]3/C=C\CCCCC[C@H](NC(=O)O[C@H]3C[C@@H](C)CC[C@@H]3C(C)C)C(=O)N2C1 [Example 275, (1S,2R,5S)-5-methyl-2-(propan-2-yl)cyclohexyl [(2R,6S,12Z,13aS,14aR,16aS)-5′-cyclopropyl-8′-methoxy-14a-{[(1-methylcyclopropyl)sulfonyl]carbamoyl}-5,16-dioxo-1,1′,2′,5,6,7,8,9,10,11,13a,14,14a,15,16,16a-hexadecahydrospiro[cyclopropa[e]pyrrolo[1,2-a][1,4]diazacyclopentadecine-2,3′-pyrano[2,3-c]quinolin]-6-yl]carbamate] | – | – | 11.3 | 39.5 | –
